The text below walks through data of US6534289B1, “Nucleic acids encoding mGLuR/CaR chimera” (NPS Pharmaceuticals, Inc., priority 1995, dated 2003).

For one experiment, the target named is T1, human CaR (Homo sapiens, UniProt P41180).
T1 construct: expressed in transfected cells; host or cells: Xenopus laevis oocytes injected with in vitro transcribed RNA from phPCaR4.0
T1 sequence (P41180 20-1078): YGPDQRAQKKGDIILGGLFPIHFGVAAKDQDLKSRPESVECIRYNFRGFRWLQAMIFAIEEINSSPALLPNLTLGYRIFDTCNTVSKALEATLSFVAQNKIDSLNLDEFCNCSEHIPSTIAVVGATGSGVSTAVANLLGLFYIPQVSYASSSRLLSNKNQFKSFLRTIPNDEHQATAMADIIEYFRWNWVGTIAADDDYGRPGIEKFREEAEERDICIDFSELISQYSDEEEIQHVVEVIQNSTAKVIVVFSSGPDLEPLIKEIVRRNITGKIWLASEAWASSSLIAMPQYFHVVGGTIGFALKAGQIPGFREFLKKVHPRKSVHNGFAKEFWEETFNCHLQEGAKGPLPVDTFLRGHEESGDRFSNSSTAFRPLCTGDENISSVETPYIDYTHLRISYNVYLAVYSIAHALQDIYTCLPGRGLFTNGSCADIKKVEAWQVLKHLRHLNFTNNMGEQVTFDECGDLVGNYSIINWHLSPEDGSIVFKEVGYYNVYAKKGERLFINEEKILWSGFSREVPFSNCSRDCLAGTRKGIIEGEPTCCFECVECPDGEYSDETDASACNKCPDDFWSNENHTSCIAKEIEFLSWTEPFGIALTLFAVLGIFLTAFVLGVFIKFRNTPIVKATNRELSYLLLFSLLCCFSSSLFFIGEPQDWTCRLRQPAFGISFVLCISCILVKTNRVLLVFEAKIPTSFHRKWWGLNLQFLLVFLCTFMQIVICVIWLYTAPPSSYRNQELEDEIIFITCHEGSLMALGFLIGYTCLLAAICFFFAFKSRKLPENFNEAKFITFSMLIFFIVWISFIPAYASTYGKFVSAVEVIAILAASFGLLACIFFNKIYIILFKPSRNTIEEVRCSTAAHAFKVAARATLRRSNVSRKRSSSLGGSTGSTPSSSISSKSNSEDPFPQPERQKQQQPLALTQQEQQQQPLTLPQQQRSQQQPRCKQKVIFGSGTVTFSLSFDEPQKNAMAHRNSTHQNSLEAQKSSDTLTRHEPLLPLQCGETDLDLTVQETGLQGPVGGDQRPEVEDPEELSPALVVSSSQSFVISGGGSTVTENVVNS
Description: Xenopus oocyte voltage clamp, Cl− currents, CaR. Type of experiment: cell-based.

Experiment [1] deals with HEK293 cells expressing pCEPCaR/R1. The experiment can be described thus: HEK293/pCEPCaR/R1 Fura assay. Type of experiment: cell-based, human. To be noted: fura-2 loaded stably transfected HEK293 cells, FIG. 9. How it is done: The DNA from plasmid pCaR/R1 was digested and cloned into the commercially available episomal mammalian expression vector, pCEP4 (Invitrogen), using the restriction enzymes Kpn I and Not I. The ligation products were transfected into DH5a cells which had been made competent for DNA transformation. […] A clone was selected from the colonies which grew. This clone, pCEPCaR/R1 was characterized by restriction enzyme digestion.
Human embryonic kidney cells (293, ATCC, CRL 1573) were grown in a routine manner. Cells were plated in 10 cm cell-culture plates in Dulbecco's modified Eagle's medium (D-MEM) containing 10% fetal calf serum (FCS) and 1×Penicillin-Streptomycin (PS, Life Technologies) so that they would be ˜70% confluent after an overnight incubation. […]
Measurements of intracellular calcium release in response to increases in extracellular calcium is quantitated using the Fura assay (Parks et al. 1989). […] Measurements of fluorescence are performed at 37° C. with constant stirring using a custom-built spectrofluorimeter (Biomedical Instrumentation Group, University of Pennsylvania). […] To calibrate fluorescence signals, digitonin (Sigma, St. Louis, Mo.; catalog # D 5628; 50 μg/ml, final) is added to obtain Fmax, and the apparent Fmin is determined by adding EGTA (10 mM, final) and Tris base (pH ˜10, final). […]

The target of a further experiment is T2, mGluR1/CaR (UniProt P23385+P41180).
T2 construct: expressed in transfected cells; host or cells: Xenopus laevis oocytes injected with in vitro transcribed RNA
The experiment can be described thus: Xenopus oocyte voltage clamp, Cl− currents, mGluR1/CaR chimera. To be noted: FIG. 6. Type of experiment: cell-based, rat mGluR1 / human calcium receptor.

T2 sequence (P23385+P41180 fused): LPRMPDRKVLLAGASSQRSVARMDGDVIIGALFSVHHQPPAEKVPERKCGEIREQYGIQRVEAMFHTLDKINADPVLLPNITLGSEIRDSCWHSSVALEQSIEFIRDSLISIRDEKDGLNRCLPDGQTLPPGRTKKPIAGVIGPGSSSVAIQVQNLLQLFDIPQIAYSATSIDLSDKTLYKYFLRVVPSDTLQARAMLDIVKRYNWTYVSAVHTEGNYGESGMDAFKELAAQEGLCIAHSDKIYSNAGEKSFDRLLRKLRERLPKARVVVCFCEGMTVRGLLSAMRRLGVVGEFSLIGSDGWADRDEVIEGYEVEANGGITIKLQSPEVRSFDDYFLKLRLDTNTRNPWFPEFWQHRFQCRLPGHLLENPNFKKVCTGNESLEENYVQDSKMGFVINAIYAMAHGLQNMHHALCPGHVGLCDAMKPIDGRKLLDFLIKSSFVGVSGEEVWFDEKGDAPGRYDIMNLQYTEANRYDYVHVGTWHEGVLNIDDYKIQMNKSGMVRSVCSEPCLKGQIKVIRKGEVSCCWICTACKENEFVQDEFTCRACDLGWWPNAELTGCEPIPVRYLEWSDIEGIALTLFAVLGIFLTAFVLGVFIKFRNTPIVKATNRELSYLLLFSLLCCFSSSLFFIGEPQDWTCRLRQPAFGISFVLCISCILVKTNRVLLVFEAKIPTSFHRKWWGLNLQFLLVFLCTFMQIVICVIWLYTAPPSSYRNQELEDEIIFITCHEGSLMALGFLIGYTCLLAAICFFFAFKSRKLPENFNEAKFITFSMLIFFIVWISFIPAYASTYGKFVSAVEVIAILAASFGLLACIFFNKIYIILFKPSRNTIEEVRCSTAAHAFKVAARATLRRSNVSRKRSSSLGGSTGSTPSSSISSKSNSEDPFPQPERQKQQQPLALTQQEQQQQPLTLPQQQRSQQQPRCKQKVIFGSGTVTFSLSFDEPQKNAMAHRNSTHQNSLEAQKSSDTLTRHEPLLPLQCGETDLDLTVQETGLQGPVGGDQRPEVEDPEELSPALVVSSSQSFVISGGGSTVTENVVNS

For `[Ca+2]` [calcium], the “activation of CaR, response amplitudes (Cl− currents in response to increases in intracellular Ca^2+)” value at human CaR (Xenopus oocyte, increasing extracellular calcium, FIG. 7) is recorded as “activation”. The intracellular calcium entry in experiment [1] is reported as “increases in intracellular calcium”.

Regarding `N[C@@H](CCC(=O)O)C(=O)O` [l-glutamate], the “Cl− current” value on human CaR (Xenopus oocytes injected with human CaR RNA, FIG. 8B) was “elicits oscillatory increases in Cl− current”.

Take `N[C@@H](Cn1oc(=O)[nH]c1=O)C(=O)O` [quisqualate]: the “activation of mGluR1/CaR as measured by Cl− currents generated in response to the release of intracellular Ca^2+” value at mGluR1/CaR is recorded as “activation”.
